Measured values from patent US20170204038A1, “3-(4-ISOBUTYL-2-METHYLPHENYL) PROPANAL AS PERFUME INGREDIENT” (Givaudan, S.A., priority 2013, published 2017).

What was measured:
male rats [1] = settings: cited from earlier work
fatty acid synthesis = settings: in vitro; cited from earlier work
glucose synthesis = settings: in vitro; cited from earlier work
rat hepatocytes = test: In vitro metabolism study in rat hepatocytes in suspension (GC-MS / LC-MS); settings: for Residual test compound: male, Sprague-Dawley, rat, 4 h, 100 μM
Description: In order to study in vitro metabolism in rat hepatocytes Lilial™ and the compound of the present invention are incubated in presence of rat hepatocytes in suspension. Decrease of Lilial™ and the compound of the present invention, and formation of the corresponding benzoic acid derivative may be analysed by GC-MS.
Cryopreserved hepatocytes from male rats (Sprague Dawley; Lifetechnologies) were defrozen, washed in Cyropreserved Hepatocytes Recovery Medium (CHRM; Lifetechnologies) and suspended in Williams E Medium (WEM; Lifetechnologies). Lilial™, or the compound of formula (I) (final concentration: 100 μM) were added to the cells (1×10^6 viable cells/ml) and suspensions were incubated up to 4 hours at 37° C. on a shaker in duplicate. Metabolism of testosterone was monitored as positive control. Decrease of the test compounds and formation of the corresponding benzoic acid derivative was determined by GC-MS analysis of methyl-esters formed after derivatisation with trimethylsilyl-diazomethane (Sigma-Aldrich) in methanol. The test compounds react with diazomethane yielding a methyl-ketone which was used for the quantification of Lilial™ and the compound of formula (I). Metabolism was stopped with ice cold 1 M HCl, samples were extracted with tert-butyl methyl ether (MTBE) and analysed by GC-MS. Incubations containing testosterone as control were also stopped with ice cold 1 M HCl, centrifuged to separate the cells, filtrated and the decrease of testosterone analysed by LC-MS. To quantify decrease of the test substances and formation of benzoic acid metabolites, calibration curves of reference materials (Lilial™ and the compound of formula (I), tert-butyl benzoic acid (Fluka) was prepared in hepatocyte incubation medium and analysed like the hepatocyte samples.

[2] = Odour Value (ratio of vapour pressure to detection threshold concentration)
Excerpt: The compound of formula (I) is a particularly impactful perfume ingredient. The impact that a perfume ingredient exerts is related to its Odour Value. Odour Value is the ratio of vapour pressure to detection threshold concentration.

guinea-pigs = settings: cited from earlier work
mice = settings: cited from earlier work
male rats [3] = settings: rat, in vivo; cited from earlier work
dogs = settings: dog, in vivo; cited from earlier work
primates = settings: cited from earlier work

Compound: CC(C)(C)c1ccc(C(=O)O)cc1 [tert-butyl benzoic acid]
- testicular effects (male rats [1]): cause testicular effects
- inhibition of fatty acid synthesis (fatty acid synthesis): inhibit
- inhibition of glucose synthesis (glucose synthesis): inhibit

Compound: Cc1cc(CC(C)C)ccc1CCC=O [Compound of formula (I), 3-(4-isobutyl-2-methylphenyl)propanal]
- Residual test compound (rat hepatocytes): 0 µM
- Odour Value [2]: 559,071

Compound: C[C@]12CC[C@H]3[C@@H](CCC4=CC(=O)CC[C@@]43C)[C@@H]1CC[C@@H]2O [testosterone]
- Decrease of testosterone (positive control) (rat hepatocytes; rat hepatocytes, LC-MS): rapid decrease

Compound: CC(C=O)Cc1ccc(C(C)(C)C)cc1 (centres unmarked) [Lilial™, 3-(4-tert-butylphenyl)-2-methylpropanal]
- Residual test compound (rat hepatocytes): 0 µM
- effects in studies with guinea-pigs (guinea-pigs): No effects
- effects in studies with mice (mice): No effects
- Odour Value [2]: 32,978
- toxic effects on the reproductive organs (male rats [3]): toxic effects
- toxic effects on the reproductive organs (dogs): toxic effects
- effects in studies with primates (primates): No effects

Compound: CC(C=O)Cc1ccc(C(C)C)cc1 (centres unmarked) [Cyclamen aldehyde, 3-p-cumenyl-2-methylpropionaldehyde]
- Odour Value [2]: 21,986
